In patent publication US10377709B2, “Carboxamide derivatives and the use thereof as medicaments for the treatment of hepatitis B” (Janssen Sciences Ireland UC, priority 2013, dated 2019):

Assays:
[1] = Cytotoxicity in HepG2 cells (Resazurin assay); format: cell-based; details: human, incubated 4 days, viability by Resazurin assay
HBV [2] = experiment: Anti-HBV activity in HepG2.117 inducible HBV producing cell line (intracellular HBV DNA, realtime PCR); format: cell-based, Hepatitis B virus; details: HepG2.117 cells (Tet-off), 3 days of treatment, intracellular HBV DNA by realtime PCR
HepG2 cells = experiment: Cytotoxicity in HepG2 cells (Resazurin assay); format: cell-based; details: incubated 4 days, viability by Resazurin assay
HBV [3] = experiment: Anti-HBV activity in HepG2.2.15 stable transfected cell line (HBV DNA from secreted virions, realtime PCR); format: cell-based, Hepatitis B virus; details: HepG2.2.15 cells, 6 days of treatment, HBV DNA from secreted virions by realtime PCR
[4] = Hepatitis B virus, HepG2.117, 72 h
[5] = Hepatitis B virus, HepG2.2.15, 144 h

Q: What does the source list for `C[C@@H](NC(=O)C(=O)N1CC[C@H](C(=O)Nc2cc(F)c(F)c(F)c2)C1)C(F)(F)F` [Compound 32, (3S)-1-[2-oxo-2-[[(1R)-2,2,2-trifluoro-1-methyl-ethyl]amino]acetyl]-N-(3,4,5-trifluorophenyl)pyrrolidine-3-carboxamide]?
A: CC50 at 4 days [1]: > 25 µM; melting point: 197.3 °C; EC50 (HBV [2]; [4]): 52 nM

Q: With `Cc1cc(NC(=O)C2CC(C)N(C(=O)C(=O)NC3(C)COC3)C2)ccc1F` (single isomer, unassigned) [Compound 17d, N-(4-fluoro-3-methylphenyl)-5-methyl-1-(2-((3-methyloxetan-3-yl)amino)-2-oxoacetyl)pyrrolidine-3-carboxamide] as the molecule, how does the CC50 (HepG2 cells) read?
A: > 25 µM

Q: What about the EC50 (HBV [2]) of the same molecule?
A: 32 nM

Q: And the EC50 (HBV [3])?
A: 70 nM

Q: For `CC1C(C(=O)Nc2ccc(F)c(Cl)c2F)CCCN1C(=O)C(=O)N[C@H](C)C(F)(F)F` (single isomer, unassigned) [Compound 35d], which CC50 (HepG2 cells) is on record?
A: > 25 µM

Q: And the EC50 (HBV [2])?
A: > 1000 nM

Q: What about the EC50 (HBV [3]) of the same molecule?
A: > 1000 nM

Q: For `Cc1cc(NC(=O)C2CC(C)N(C(=O)C(=O)NC3(C)COC3)C2)ccc1F` (single isomer, unassigned) [Compound 17c, N-(4-fluoro-3-methylphenyl)-5-methyl-1-(2-((3-methyloxetan-3-yl)amino)-2-oxoacetyl)pyrrolidine-3-carboxamide], which CC50 (HepG2 cells) is on record?
A: > 25 µM

Q: And the EC50 (HBV [2])?
A: > 1000 nM

Q: What about the EC50 (HBV [3]) of the same molecule?
A: > 1000 nM

Q: What does the source list for `CC(C)NC(=O)C(=O)N1CCC(C(=O)Nc2cc(F)c(F)c(Cl)c2)[C@@H]1C` (single isomer, unassigned) [Compound 29b]?
A: CC50 (HepG2 cells): > 25 µM; EC50 (HBV [2]): > 1000 nM; EC50 (HBV [3]): > 1000 nM

Q: Which CC50 at 4 days [1] does the source give for `CC[C@@H](C)NC(=O)C(=O)N1CC[C@H](C(=O)Nc2ccc(F)c(C)c2)C1` [Compound 8, (3S)-N-(4-Fluoro-3-methylphenyl)-1-[{[(1R)-1-methylpropyl]amino}(oxo)acetyl]pyrrolidine-3-carboxamide] here?
A: > 25 µM

Q: What about the EC50 (HBV [2]; [4]) of the same molecule?
A: 38 nM

Q: What about the EC50 (HBV [3]; [5]) of the same molecule?
A: 65 nM

Q: For `Cc1cc(NC(=O)C2CC(C)N(C(=O)C(=O)NC3(C)COC3)C2)ccc1F` (single isomer, unassigned) [Compound 17b, N-(4-fluoro-3-methylphenyl)-5-methyl-1-(2-((3-methyloxetan-3-yl)amino)-2-oxoacetyl)pyrrolidine-3-carboxamide], which CC50 (HepG2 cells) is on record?
A: > 25 µM

Q: And the EC50 (HBV [2])?
A: 796 nM

Q: And the EC50 (HBV [3])?
A: 918 nM

Q: For `CC(C)(NC(=O)C(=O)N1CC[C@H](C(=O)Nc2cc(F)c(F)c(Cl)c2)C1)C(F)(F)F` [Compound 16, (S)-N-(3-chloro-4,5-difluorophenyl)-1-(2-oxo-2-((1,1,1-trifluoro-2-methylpropan-2-yl)amino)acetyl)pyrrolidine-3-carboxamide], which CC50 at 4 days [1] is on record?
A: > 25 µM

Q: What about the EC50 (HBV [2]; [4]) of the same molecule?
A: 35 nM

Q: What about the EC50 (HBV [3]; [5]) of the same molecule?
A: 58 nM

Q: For `Cc1cc(NC(=O)[C@H]2CCN(C(=O)C(=O)N[C@H]3CCOC3)C2)ccc1F` [Compound 9, (3S)-N-(4-Fluoro-3-methylphenyl)-1-{oxo[(3S)-tetrahydrofuran-3-ylamino]-acetyl}pyrrolidine-3-carboxamide], which CC50 at 4 days [1] is on record?
A: > 25 µM

Q: What about the EC50 (HBV [2]; [4]) of the same molecule?
A: 134 nM

Q: What about the EC50 (HBV [3]; [5]) of the same molecule?
A: 120 nM

Q: Which CC50 at 4 days [1] does the source give for `O=C(NC1(C(F)(F)F)CC1)C(=O)N1CC[C@H](C(=O)Nc2cc(F)c(F)c(Cl)c2)C1` [Compound 13, (S)-N-(3-chloro-4,5-difluorophenyl)-1-(2-oxo-2-((1-(trifluoromethyl)cyclopropyl)amino)acetyl)pyrrolidine-3-carboxamide] here?
A: > 25 µM

Q: What about the EC50 (HBV [2]; [4]) of the same molecule?
A: 35 nM

Q: And the EC50 (HBV [3]; [5])?
A: 20 nM

Q: Which results are given for `C[C@@H](NC(=O)C(=O)N1CC[C@H](C(=O)Nc2cc(F)c(F)c(Br)c2)C1)C(F)(F)F` [Compound 1, (S)-N-(3-bromo-4,5-difluorophenyl)-1-(2-oxo-2-(((R)-1,1,1-trifluoropropan-2-yl)amino)acetyl)pyrrolidine-3-carboxamide]?
A: CC50 at 4 days [1]: > 25 µM; EC50 (HBV [2]; [4]): 18 nM; EC50 (HBV [3]; [5]): 20 nM

Q: Which CC50 at 4 days [1] does the source give for `Cc1cc(NC(=O)C2CC(C)N(C(=O)C(=O)NC3(C)COC3)C2)ccc1F` (single isomer, unassigned) [Compound 17a, N-(4-fluoro-3-methylphenyl)-5-methyl-1-(2-((3-methyloxetan-3-yl)amino)-2-oxoacetyl)pyrrolidine-3-carboxamide] here?
A: > 25 µM

Q: And the EC50 (HBV [2])?
A: > 1000 nM

Q: What about the EC50 (HBV [3]) of the same molecule?
A: > 1000 nM

Q: With `CC1(NC(=O)C(=O)N2CC[C@H](C(=O)Nc3cc(F)c(F)c(Br)c3)C2)COC1` [Compound 2, (S)-N-(3-bromo-4,5-difluorophenyl)-1-(2-((3-methyloxetan-3-yl)amino)-2-oxoacetyl)pyrrolidine-3-carboxamide] as the molecule, how does the CC50 at 4 days [1] read?
A: > 25 µM

Q: What about the EC50 (HBV [2]; [4]) of the same molecule?
A: 33 nM

Q: And the EC50 (HBV [3]; [5])?
A: 70 nM

Q: What does the source list for `Cc1cc(NC(=O)[C@H]2CCN(C(=O)C(=O)NC3CCCC3)C2)ccc1F` [Compound 5]?
A: CC50 at 4 days [1]: > 25 µM; EC50 (HBV [2]; [4]): 46 nM; EC50 (HBV [3]; [5]): 112 nM

Q: With `Cc1cc(NC(=O)[C@H]2CCCN(C(=O)C(=O)NC(C)C)C2)ccc1F` [Compound 12, (3S)-N-(4-Fluoro-3-methylphenyl)-1-{[(1-methylethyl)amino] (oxo)-acetyl}piperidine-3-carboxamide] as the molecule, how does the CC50 at 4 days [1] read?
A: > 25 µM

Q: What about the EC50 (HBV [2]; [4]) of the same molecule?
A: 115 nM

Q: And the EC50 (HBV [3]; [5])?
A: 321 nM

Q: Which CC50 (HepG2 cells) does the source give for `CC1C(C(=O)Nc2ccc(F)c(Cl)c2F)CCCN1C(=O)C(=O)N[C@H](C)C(F)(F)F` (single isomer, unassigned) [Compound 35c] here?
A: > 25 µM

Q: What about the EC50 (HBV [2]) of the same molecule?
A: > 1000 nM

Q: What about the EC50 (HBV [3]) of the same molecule?
A: > 1000 nM

Q: With `CC1C(C(=O)Nc2ccc(F)c(Cl)c2F)CCCN1C(=O)C(=O)N[C@H](C)C(F)(F)F` (single isomer, unassigned) [Compound 35b] as the molecule, how does the CC50 (HepG2 cells) read?
A: > 25 µM

Q: And the EC50 (HBV [2])?
A: 483 nM

Q: And the EC50 (HBV [3])?
A: 195 nM
